Reference: patent US7763580B2, “Methods for treating conditions associated with the accumulation of excess extracellular matrix” (University of Utah Research Foundation, priority 1999, dated 2010)

Tests used:
[1] = system: anti-Thy 1 glomerulonephritis; experiment: Glomerular p-Smad2 (Western blot); type: in vivo, Sprague Dawley rats; settings: enalapril alone
Protocol: These experiments were performed on male Sprague Dawley rats (200-250 g) obtained from the Sasco colony of Charles River Laboratories (Wilmington, Mass., USA). Animal housing and care were in accordance with the NIH Guide for the Care and Use of Laboratory Animals, NIH Publication No. 85-23, 1985. Animals were fed a normal protein diet (22% protein, Teklad No. 86 550, Teklad Premier Laboratory Diets, Madison, Wis., USA). Glomerulonephritis was induced by tail vein injection of 2.25 mg/Kg of the monoclonal anti-Thy 1.1 antibody OX-7 (NCCC, Biovest International Inc, Minneapolis, Minn., USA). OX-7 binds to a Thy 1-like epitope on the surface of mesangial cells causing complement-dependent cell lysis followed by fibrotic tissue repair (Bagchus et al., Lab Invest. 55:680-687 (1986)). Control animals were injected with similar volumes of phosphate-buffered saline (PBS). Groups of 8 rats were assigned and treated as outlined in Table 2. […] Bound antibodies were detected by developing the blot in ECL™ Western blotting detection reagents (Amersham Pharmacia Biotech) for 1 min. Quantitation of the bands on autoradiograms was performed using a BIO-RAD GS-700 imaging densitometer. Changes in p-Smad2 levels were determined by correcting for the densitometric intensity of β-actin for each sample. […] The percent reduction in disease severity in a treated group was calculated as: […]

[2] = system: anti-Thy 1 glomerulonephritis; experiment: Immunofluorescent staining of glomerular fibronectin EDA+ and collagen I; type: in vivo, Sprague Dawley rats; settings: enalapril alone
Protocol: These experiments were performed on male Sprague Dawley rats (200-250 g) obtained from the Sasco colony of Charles River Laboratories (Wilmington, Mass., USA). Animal housing and care were in accordance with the NIH Guide for the Care and Use of Laboratory Animals, NIH Publication No. 85-23, 1985. Animals were fed a normal protein diet (22% protein, Teklad No. 86 550, Teklad Premier Laboratory Diets, Madison, Wis., USA). Glomerulonephritis was induced by tail vein injection of 2.25 mg/Kg of the monoclonal anti-Thy 1.1 antibody OX-7 (NCCC, Biovest International Inc, Minneapolis, Minn., USA). OX-7 binds to a Thy 1-like epitope on the surface of mesangial cells causing complement-dependent cell lysis followed by fibrotic tissue repair (Bagchus et al., Lab Invest. 55:680-687 (1986)). Control animals were injected with similar volumes of phosphate-buffered saline (PBS). […] The intensity of glomerular staining of collagen I and fibronectin was evaluated according to a 0 to 4 scale, which has been described in detail previously (Yamamoto et al., Kidney Int. 49:461-469 (1996)). The number of cells per glomerulus, staining positive for the monocyte/macrophage marker ED1, were counted. Thirty glomeruli per sample were evaluated. The mean values with standard error values were calculated. […] The percent reduction in disease severity in a treated group was calculated as: […]

## CCOC(=O)[C@H](CCc1ccccc1)N[C@@H](C)C(=O)N1CCC[C@H]1C(=O)O [enalapril]
[1]
  reduction of Smad2 activation (p-Smad2): 36%
[2]
  reduction of collagen I immunostaining: 33%
  reduction of fibronectin immunostaining: 36%
